Read-outs that look alike come from different tables or passages of the source.
How the values were obtained:
[1] = molecular target: T1, HIV-1 IN (Human immunodeficiency virus type 1 group M subtype B, UniProt P12497); assay: HTRF IN multimerization assay; format: biochemical; conditions: mean ± SD
T1 construct: made in house
Description: A key property of INLAIs is the ability to promote HIV-1 IN homo-multimerization ([39][–][42]). […] The maximal signal (plateau) in our IN aggregation assay corresponds to the highest HTRF signal increase under saturating INLAI concentration, relative to baseline level. Thus, MUT916, MUT884, MUT871, and MUT872 increased HIV-1 IN aggregation 3.7 to 4.4-fold, while BDM-2, BI-224436, and S-I-82 did so 5 to 6-fold (Table 1).

[2] = system: HXB2 HIV-1 strain; assay: Multiple-round infection assay in MT4 cells, HXB2; format: cell-based; conditions: Human immunodeficiency virus 1, HXB2; multiple-round infection, MT4 cells; mean ± SD, n > 5; read-out: EC50 HXB2
Experimental: Antiretroviral activity of BDM-2 and its analogs was first evaluated in lymphoblastoid cell line MT4 and in primary human T lymphocytes using NL4-3 and HXB2 laboratory HIV-1 isolates.
(§1) MT4 cells growing exponentially at the density of 10^6/mL were infected with HIV-1 strain NL4-3 at a multiplicity of infection (MOI) of 0.001 for 2 h in the presence of different concentrations of compounds, and the CellTiter-Glo luminescent reagent (Promega) was used to quantify cell viability as described previously ([12]).

[3] = system: NL4-3 HIV-1 strain; assay: Multiple-round infection assay in MT4 cells, NL4-3; format: cell-based; conditions: MT4 cells
[4] = Cytotoxicity assay in MT4 cells; format: cell-based; conditions: human, MT4 cells (proliferating human T-cell line), CellTiter-Glo
Description: Growth inhibition was monitored in a proliferating human T-cell line (MT4) with different concentrations of compounds, using the CellTiter-Glo luminescent reagent (Promega), as previously described ([12]).

[5] = system: lab-adapted and clinical HIV-1 isolates; assay: Infection assays in primary T CD4+ lymphocytes; format: cell-based; conditions: Human immunodeficiency virus 1, Lymphocyte
[6] = system: VSV-G-pseudotyped NL4-3Δenv-luc; assay: microbe, parasite or virus in culture; format: cell-based, HIV-1; conditions: Human immunodeficiency virus 1, NL43, MT4, read-out: EC50 in single-round infection
[7] = system: recombinant NL4-3 viruses with polymorphisms at IN positions 124 and 125; assay: Multiple-round infection of MT4 cells with recombinant NL4-3 viruses polymorphic at IN positions 124 and 125; format: cell-based, HIV-1
Description: Located on the HIV-1 IN CCD dimerization interface, the principal INLAI binding pocket overlaps with a hot spot of amino acid sequence polymorphism involving IN residues 124 and 125 ([16]). To test if the new INLAIs maintained antiviral activity against major polymorphisms, we introduced all major combinations of residues found in circulating HIV-1 strains at positions 124 and 125 into NL4-3 HIV-1 molecular clone. In total, we evaluated 15 such combinations that collectively covered 98% of all HIV-1 clade polymorphisms involving these positions ([48]). To gauge effects on the antiviral activity, we calculated the EC50 fold change (FC) relative to wild type NL4-3 HIV-1 strain that features Thr124 and Thr125 (TT; specific polymorphisms are referred to by a single letter amino acid code).
as §1

[8] = system: primary HIV-1 isolates with polymorphisms at IN positions 124 and 125; assay: Multiple-round infection of MT4 cells with primary HIV-1 isolates polymorphic at IN positions 124 and 125; format: cell-based; conditions: primary isolate
Experimental: Next, we evaluated the potency of the BDM-2 series of INLAIs against several primary HIV-1 isolates with polymorphisms at IN positions 124 and 125.
as §1

[9] = system: HIV-1 strains resistant to INSTIs, NRTIs, NNRTIs or PIs; format: cell-based
Experimental: To this end, we used both recombinant viruses constructed by introducing described drug resistance mutations into NL4-3 HIV-1 clone as well as drug-resistant clinical HIV-1 isolates.
as §1

[10] = system: NL4-3 HIV-1 with INLAI-selected IN single point mutations; format: cell-based
[11] = molecular target: HIV-1 IN-LEDGF/p75 interaction (Human immunodeficiency virus type 1 group M subtype B, UniProt P12497); assay: biochemical
[12] = molecular target: CCD of HIV-1 IN and IBD of LEDGF/p75 (Human immunodeficiency virus type 1 group M subtype B, UniProt P12497); assay: biochemical
[13] = INSTI-resistant, NL4-3 background
[14] = INSTI-resistant, primary patient-derived strain

Cc1nc2ccccc2c(-c2ccc3c4c(ccnc24)CCO3)c1[C@H](OC(C)(C)C)C(=O)O [BI-224436, reference compound]
AC50 ([1]; concentration for 50% maximum activation of multimerization): 34 ± 11 nM
IN multimerization Plateau ([1]; maximum multimerization reached versus baseline): 670 ± 210%
EC50 [2]: 23 ± 8.4 nM
EC90 ([3]; Human immunodeficiency virus 1, NL43, multiple-round infection, from dose response curves, read-out: EC90 NL4-3): 77 ± 34 nM
EC50 ([3]; Human immunodeficiency virus 1, NL43, multiple-round infection, mean ± SD, n > 5, read-out: EC50 NL4-3): 51 ± 17 nM
Selectivity index CC50/EC50 NL4-3 [3]: >3,921
CC50 [4]: > 200000 nM
EC50 ([5]; read-out: EC50 33913N (B)): 20 ± 9 nM
EC50 ([5]; read-out: EC50 HXB2 (B)): 14 ± 7 nM
EC50 ([5]; read-out: EC50 KER2008 (A)): 37 ± 12 nM
EC50 ([5]; read-out: EC50 NL4-3 (B)): 100 ± 80 nM
EC50 ([5]; read-out: EC50 NP1525 (CRF01_AE)): 61 ± 35 nM
EC50 ([5]; read-out: EC50 NP1538 (B)): 66 ± 42 nM
EC50 [6]: 1400 ± 300 nM
Fold change in EC50 relative to parental NL4-3, AA ([7]; recombinant NL4-3, IN 124/125 AA): 1
Fold change in EC50 relative to parental NL4-3, AM ([7]; recombinant NL4-3, IN 124/125 AM): 0.4
Fold change in EC50 relative to parental NL4-3, AT ([7]; recombinant NL4-3, IN 124/125 AT): 1
Fold change in EC50 relative to parental NL4-3, AV ([7]; recombinant NL4-3, IN 124/125 AV): 1
Fold change in EC50 relative to parental NL4-3, GA ([7]; recombinant NL4-3, IN 124/125 GA): 1
Fold change in EC50 relative to parental NL4-3, GT ([7]; recombinant NL4-3, IN 124/125 GT): 2
Fold change in EC50 relative to parental NL4-3, NA ([7]; recombinant NL4-3, IN 124/125 NA): 1
Fold change in EC50 relative to parental NL4-3, NT ([7]; recombinant NL4-3, IN 124/125 NT): 1
Fold change in EC50 relative to parental NL4-3, NV ([7]; recombinant NL4-3, IN 124/125 NV): 1
Fold change in EC50 relative to parental NL4-3, SA ([7]; recombinant NL4-3, IN 124/125 SA): 1
Fold change in EC50 relative to parental NL4-3, ST ([7]; recombinant NL4-3, IN 124/125 ST): 1
Fold change in EC50 relative to parental NL4-3, TA ([7]; recombinant NL4-3, IN 124/125 TA): 1
Fold change in EC50 relative to parental NL4-3, TM ([7]; recombinant NL4-3, IN 124/125 TM): 0.4
Fold change in EC50 relative to parental NL4-3, TV ([7]; recombinant NL4-3, IN 124/125 TV): 1
Fold change in EC50 relative to parental NL4-3, CAM2BBY (CRF02) ([8]; IN 124/125 AA): 2
Fold change in EC50 relative to parental NL4-3, E0836M4 (D) ([8]; IN 124/125 AA): 1
Fold change in EC50 relative to parental NL4-3, KER2008 (A) ([8]; IN 124/125 AA): 1
Fold change in EC50 relative to parental NL4-3, NP1525 (CRF01) ([8]; IN 124/125 AA): 1
Fold change in EC50 relative to parental NL4-3, NP1695 (CRF02) ([8]; IN 124/125 AA): 2
Fold change in EC50 relative to parental NL4-3, TZA125 (C) ([8]; IN 124/125 AA): 0.5
Fold change in EC50 relative to parental NL4-3, KSM4030 (A) ([8]; IN 124/125 GA): 1
Fold change in EC50 relative to parental NL4-3, vGA (C) ([8]; IN 124/125 GA): 2
Fold change in EC50 relative to parental NL4-3, 99ET14 (C) ([8]; IN 124/125 NA): 1
Fold change in EC50 relative to parental NL4-3, NP1538 (B) ([8]; IN 124/125 NA): 1
Fold change in EC50 relative to parental NL4-3, vNA_1 (B) ([8]; IN 124/125 NA): 2
Fold change in EC50 relative to parental NL4-3, vNA_2 (CRF02) ([8]; IN 124/125 NA): 2
Fold change in EC50 relative to parental NL4-3, vNV (B) ([8]; IN 124/125 NV): 1
Fold change in EC50 relative to parental NL4-3, vSA_1 (B) ([8]; IN 124/125 SA): 3
Fold change in EC50 relative to parental NL4-3, vSA_2 (CRF02) ([8]; IN 124/125 SA): 2
Fold change in EC50 relative to parental NL4-3, vTA_1 (B) ([8]; IN 124/125 TA): 2
Fold change in EC50 relative to parental NL4-3, vTA_2 (CRF02) ([8]; IN 124/125 TA): 2
Fold change in EC50 relative to NL4-3, E92Q [9, 13]: 1
Fold change in EC50 relative to NL4-3, G140S [9, 13]: 1
Fold change in EC50 relative to NL4-3, G140S/Q148H [9, 13]: 1
Fold change in EC50 relative to NL4-3, N155H [9, 13]: 1
Fold change in EC50 relative to NL4-3, Q148H [9, 13]: 1
Fold change in EC50 relative to NL4-3, Y143R [9, 13]: 1
Fold change in EC50 relative to NL4-3, E92Q/N155H (pat.) [9, 14]: 1
Fold change in EC50 relative to NL4-3, G140S/Q148H (pat.) [9, 14]: 1
Fold change in EC50 relative to NL4-3, T97A/N155H (pat.) [9, 14]: 1
Fold change in EC50 relative to NL4-3, NLAY351717 ([9]; NRTI-resistant clone): 1
Fold change in EC50 relative to NL4-3, NLAY351753 ([9]; NRTI/NNRTI-resistant clone): 1
Fold change in EC50 relative to NL4-3, K103N/Y181C ([9]; NRTI/NNRTIs group, NL4-3 background): 1
Fold change in EC50 relative to NL4-3, ARP-4595 ([9]; PI-resistant virus): 0.4
Fold change in EC50 relative to NL4-3, ARP-4596 ([9]; PI-resistant virus): 0.5
Fold change in EC50 relative to NL4-3, ARP-11801 ([9]; PI-resistant virus): 1
Fold change in EC50 relative to NL4-3, ARP-11803 ([9]; PI-resistant virus): 1
Fold change in EC50 relative to NL4-3, ARP-11807 ([9]; PI-resistant virus): 1
Fold change in EC50 relative to NL4-3, ARP-11808 ([9]; PI-resistant virus): 1
EC50 fold change compared to wild type NL4-3, A128T [10]: 6
EC50 fold change compared to wild type NL4-3, H171Q [10]: 4
EC50 fold change compared to wild type NL4-3, N222K [10]: 2
EC50 fold change compared to wild type NL4-3, T174I [10]: 706
EC50 fold change compared to wild type NL4-3, Y99H [10]: 2
IC50 [11]: 90 ± 19 nM
IC50 [12]: 73 ± 13 nM

Reference: article PMC10353390, “Biological and Structural Analyses of New Potent Allosteric Inhibitors of HIV-1 Integrase” (Antimicrobial Agents and Chemotherapy, 2023)
